Data reported in PubChem BioAssay (NCI).
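Growth conditions: 96-well plates. Treatment: test compound, 48 hours, 5 concentrations. Analysis: linear interpolation between bracketing concentrations; unreached endpoints set to highest concentration. Abbreviation: GI50, concentration required for 50% inhibition of growth. TGI denotes the concentration required for complete inhibition of growth.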

Tests used:
Experiment in all cases: DTP human tumour cell line panel, 48 h
NCI/ADR-RES ovarian = system: NCI/ADR-RES ovarian
HCT-116 colon = system: HCT-116 colon
OVCAR-3 ovarian = system: OVCAR-3 ovarian
HOP-62 NSCLC = system: HOP-62 NSCLC
SF-268 CNS = system: SF-268 CNS
UACC-62 melanoma = system: UACC-62 melanoma
PC-3 prostate = system: PC-3 prostate
DU-145 prostate = system: DU-145 prostate
LOX IMVI melanoma = system: LOX IMVI melanoma
HS 578T breast = system: HS 578T breast

| SMILES | TGI (NCI/ADR-RES ovarian) [µM] | TGI (HCT-116 colon) [µM] | TGI (OVCAR-3 ovarian) [µM] | TGI (HOP-62 NSCLC) [µM] | TGI (SF-268 CNS) [µM] | TGI (UACC-62 melanoma) [µM] | TGI (PC-3 prostate) [µM] | TGI (DU-145 prostate) [µM] | TGI (LOX IMVI melanoma) [µM] | TGI (HS 578T breast) [µM] | GI50 (HCT-116 colon) [µM] | GI50 (OVCAR-3 ovarian) [µM] | GI50 (DU-145 prostate) [µM] |
| --- | --- | --- | --- | --- | --- | --- | --- | --- | --- | --- | --- | --- | --- |
| OC[C@@H](O)[C@H](O)[C@H](O)[C@@H](O)C1SCCCS1 | > 100 | > 100 | > 100 | > 100 | > 100 | > 100 | > 100 | > 100 |  |  |  |  |  |
| COc1ccc(-c2oc(C=Nc3ccccc3)c([N+](=O)[O-])c2-c2ccc(OC)c(OC)c2)cc1OC |  | > 100 | > 100 | > 100 | > 100 | > 100 |  |  | > 100 |  |  |  |  |
| O=C(C#Cc1ccccc1)Nc1ccccc1CC(c1c[nH]c2ccccc12)c1c[nH]c2ccccc12 |  |  | 29.2 | > 100 | > 100 | 22 |  |  | 43.6 |  |  |  |  |
| CN(C)c1ccc(/C=C(\C#N)C(=O)c2ccccc2)cc1Br |  | > 100 | > 100 | 39.6 | > 100 | > 100 |  |  | 74.2 |  |  |  |  |
| COc1ccccc1-c1nc[nH]c1-c1ccccc1OC | 61.8 | > 100 | > 100 | > 100 | 65.3 |  | > 100 |  | 41.7 |  |  |  |  |
| N#Cc1ccccc1C#C/C=C\C#Cc1ccccn1 | 34.3 | 24.3 | 19.2 | 41.4 | 48.4 | 37 | 40.6 | 83.5 |  | 38.3 |  |  |  |
| CCc1cc2c(cc1O)CC[C@@H]1[C@@H]2CC[C@]2(C)[C@@H](O)CC[C@@H]12 | 9.92 | 13.4 | 11.5 | 19.8 | 24.6 |  | 37.3 | 24.5 | 26.6 |  | 3.52 | 2.94 | 11.1 |
| Cc1ccc2c(=O)cc(-c3ccccc3)[nH]c2n1 | 0.31 | 59.4 | 0.308 | > 100 | > 100 |  | 26.7 | > 23.7 | > 100 |  |  |  |  |
| CCOC1=C2N=C(C(CC)c3ccc(F)cc3)N=C2C(=O)c2ccccc21 (configuration not stated) |  | > 61.3 | > 91.1 | > 100 | 99.4 | 29.7 |  |  | 29.7 |  |  |  |  |
| Nc1nc2c(nnn2C2C=C(CO)C(O)C2O)c(=O)[nH]1 (configuration not stated) |  | > 100 | > 100 | > 100 | > 100 | > 100 |  |  | > 100 |  |  |  |  |
